# Source: PubChem BioAssay (NCI)
#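 In this assay, cells in 96-well plates receive the compound at five concentrations for 48 hours. Endpoints are linearly interpolated between the surrounding concentrations. TGI: concentration producing complete growth inhibition.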
# How the values were obtained:
# Test in all cases: growth of human tumour cells (NCI), 48 h
# HS 578T breast = test system: HS 578T breast
# SF-268 CNS = test system: SF-268 CNS
# SK-MEL-28 melanoma = test system: SK-MEL-28 melanoma
# SK-MEL-2 melanoma = test system: SK-MEL-2 melanoma
# HCC-2998 colon = test system: HCC-2998 colon
# SW-620 colon = test system: SW-620 colon
# M14 melanoma = test system: M14 melanoma
# MDA-N = test system: MDA-N
# ACHN renal = test system: ACHN renal
# COLO 205 colon = test system: COLO 205 colon
# PC-3 prostate = test system: PC-3 prostate
# RXF 393 renal = test system: RXF 393 renal
# CAKI-1 renal = test system: CAKI-1 renal
# SN12C renal = test system: SN12C renal
# NCI-H226 lung = test system: NCI-H226 lung
# OVCAR-4 ovarian = test system: OVCAR-4 ovarian
SMILES,TGI (HS 578T breast) [µM],TGI (SF-268 CNS) [µM],TGI (SK-MEL-28 melanoma) [µM],TGI (SK-MEL-2 melanoma) [µM],TGI (HCC-2998 colon) [µM],TGI (SW-620 colon) [µM],TGI (M14 melanoma) [µM],TGI (MDA-N) [µM],TGI (ACHN renal) [µM],TGI (COLO 205 colon) [µM],TGI (PC-3 prostate) [µM],TGI (RXF 393 renal) [µM],TGI (CAKI-1 renal) [µM],TGI (SN12C renal) [µM],TGI (NCI-H226 lung) [µM],TGI (OVCAR-4 ovarian) [µM]
COc1ccc(C(=O)/C=C/c2ccc(OCC(=O)O)cc2)cc1,> 100,> 100,> 100,> 100,> 100,> 100,> 100,> 100,> 100,> 100,> 100,> 100,> 100,> 100,–,–
Fc1ccc(NCn2nc(COc3ccccc3Cl)n(/N=C/c3ccc(-c4ccc(Cl)cc4Cl)o3)c2=S)cc1Cl,> 100,> 100,> 100,62.6,–,> 100,> 100,> 100,> 100,–,> 100,56.6,> 100,–,> 100,> 100
CCOC(=O)NC(NNc1ccc([N+](=O)[O-])cc1[N+](=O)[O-])(C(F)(F)F)C(F)(F)F,> 100,> 100,> 100,> 100,> 100,> 100,> 100,> 100,> 100,29.9,> 100,> 100,> 100,> 100,> 100,–
Cc1cc(N(CCC#N)CCC#N)ccc1/C(N=Nc1ccccc1)=N\NC(=O)c1ccccc1,75.8,> 100,–,> 100,> 100,–,> 100,> 100,41.3,53.6,> 100,> 100,72.6,> 100,> 100,> 100
O=Cc1[nH]c(=O)[nH]c(=O)c1CCl,> 100,> 100,> 100,> 100,> 100,> 100,–,> 100,> 100,> 100,> 100,> 100,> 100,> 100,> 100,> 100
CC(=O)O[C@H]1[C@H](OC(C)=O)[C@@H](CN=[N+]=[N-])OCO[C@@H]1CN=[N+]=[N-],> 100,> 100,> 100,> 100,> 100,> 100,> 100,> 100,> 100,> 100,> 100,> 100,–,> 100,> 100,> 100
C[N+](C)(C)C1(C(=O)[O-])CC1,> 100,> 100,> 100,–,> 100,> 100,> 100,> 100,> 100,–,> 100,> 100,–,> 100,> 100,> 100
COc1cc(C=Nc2ccc(S(N)(=O)=O)cc2)cc(OC)c1,> 50,> 50,> 50,> 50,> 50,–,> 50,> 50,> 50,> 50,> 50,> 50,> 50,> 50,> 50,> 50
COC1=CC(=O)c2c(O)ccc(O)c2C1=O,19.5,17.9,3.71,–,9.33,17.7,1.89,1.9,34.4,3.07,41.4,31.3,–,7.55,43.8,27.2
Clc1ccc2c(c1)CC1C[N+]3=C(CCCC3)C1=C2 (stereo not given),> 100,> 100,> 100,> 100,–,> 100,> 100,> 100,> 100,> 100,> 100,> 100,> 100,> 100,> 100,> 100
Cc1nn(-c2ccccc2)c2c1C(c1cc3ccccc3nc1Cl)NC(=S)N2 (stereo not given),> 100,> 100,–,44.8,–,98.4,> 100,> 100,> 100,> 100,> 100,71.8,> 100,> 100,> 100,> 100
O=c1c2ccccc2c2c1c1c3ccccc3c(=O)c1c1c3ccccc3c(=O)c21,> 100,> 100,> 100,> 100,> 100,> 100,> 100,> 100,> 100,> 100,> 100,–,> 100,> 100,> 100,–
CC(=O)O[C@H]1[C@@H](OC2CCCC2(c2ccccc2)c2ccccc2)O[N+]([O-])=C[C@@]12COCc1cc3c(cc12)OCO3 (stereo not given in full),> 100,14.4,> 28.4,–,11.9,> 100,37.2,> 100,> 43.6,> 58.2,19.3,17.5,> 100,> 39.6,15.8,15.1
O=C(N/N=C/C=C/c1ccc([N+](=O)[O-])o1)c1ccc(Br)s1,31.7,98.4,52.3,56.3,–,71.6,42.1,56.7,38.7,33.3,49.7,30.9,66.2,70.5,47.3,40.2
CC1C2(C)OC(=N)C(C#N)(C(c3ccco3)O2)C1(C#N)C#N (stereo not given),80.8,> 100,46.2,75.9,55.5,40.4,35.9,43,> 100,27.7,> 100,51.4,27.4,30.4,> 100,–
O=C1/C(=C/c2ccc(Cl)cc2)N=C(c2ccccc2)N1C1Nc2cc3c(cc2S1)NC(N1C(=O)/C(=C/c2ccc(Cl)cc2)N=C1c1ccccc1)S3 (stereo not given),> 100,> 100,> 100,> 100,> 100,> 100,> 100,> 100,> 100,–,> 100,> 100,> 100,–,> 100,> 100
